Test results: patent publication US4868210A, “Antihyperlipidemic and antiatherosclerotic compounds and compositions” (priority 1988, dated 1989)

What follows are molecules tested against T1, acyl-CoA:cholesterol acyltransferase (ACAT) (Oryctolagus cuniculus, UniProt G1SFD9) (assay: In vitro ACAT inhibition (radiolabeled cholesterol oleate formation from radiolabeled oleic acid in rabbit intestinal microsomes)). Conditions: concentration required to inhibit 50% the acylation of cholesterol by oleic acid.
T1 construct: tissue preparation containing rabbit intestinal microsomes; from tissue; host or cells: rabbit intestinal microsomes
T1 sequence (G1SFD9 1-524): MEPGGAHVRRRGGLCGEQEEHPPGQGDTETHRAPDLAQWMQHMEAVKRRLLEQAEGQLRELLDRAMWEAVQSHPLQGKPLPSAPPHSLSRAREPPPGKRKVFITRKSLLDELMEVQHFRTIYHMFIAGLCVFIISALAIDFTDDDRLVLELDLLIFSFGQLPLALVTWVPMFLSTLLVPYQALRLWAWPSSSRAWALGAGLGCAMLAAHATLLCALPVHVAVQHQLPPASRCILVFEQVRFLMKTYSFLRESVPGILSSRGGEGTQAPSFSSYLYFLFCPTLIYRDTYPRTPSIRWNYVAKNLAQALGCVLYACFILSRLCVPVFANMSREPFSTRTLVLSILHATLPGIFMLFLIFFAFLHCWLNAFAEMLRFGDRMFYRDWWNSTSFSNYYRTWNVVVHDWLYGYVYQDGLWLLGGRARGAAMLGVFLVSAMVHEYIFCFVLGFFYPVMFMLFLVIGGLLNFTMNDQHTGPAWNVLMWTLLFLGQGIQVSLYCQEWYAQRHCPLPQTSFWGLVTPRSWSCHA
Type: biochemical
Method: The ability of representative compounds of the present invention to inhibit ACAT was measured using an in vitro test more fully described in Field, F. J. and Salone, R. G., Biochemica et Biophysica 712: 557-570 (1982). The test assesses the ability of a test compound to inhibit the acylation of cholesterol by oleic acid by measuring the amount of radiolabeled cholesterol oleate formed from radiolabeled oleic acid in a tissue preparation containing rabbit intestinal microsomes.

| SMILES | IC50 |
| --- | --- |
| Cc1cccc(C)c1NC(=O)NC1CC(C)(C)c2ccccc2C1(C)C (stereo not shown) [Example 12, N-(2,6-dimethylphenyl)-N'-(1,2,3,4-tetrahydro-1,1,4,4-tetramethyl-2-naphthalenyl)urea] | 0.27 µM |
| COc1ccc2c(c1)CC(CNC(=O)Nc1c(C(C)C)cccc1C(C)C)CC2 (stereo not shown) [Example 11, N-[2,6-bis(1-methylethyl)phenyl]-N'-[(1,2,3,4-tetrahydro-7-methoxy-2-naphthalenyl)methyl]urea] | 0.084 µM |
| CC(C)c1cccc(C(C)C)c1NC(=O)NC1CC(C)(C)c2ccccc2C1(C)C (stereo not shown) [Example 13, N-[2,6-bis(1-methylethyl)phenyl]-N'-(1,2,3,4-tetrahydro-1,1,4,4-tetramethyl-2-naphthalenyl)urea] | 0.089 µM |
| CC(C)c1cccc(C(C)C)c1NC(=O)NC1COc2ccccc2C1 (stereo not shown) [Example 10, N-[2,6-bis(1-methylethyl)phenyl]-N'-(3,4-dihydro-2H-1-benzopyran-3-yl)urea] | 0.1 µM |

These reach a lower IC50. Values come first.

| IC50 | SMILES |
| --- | --- |
| 0.052 µM | CC(C)c1cccc(C(C)C)c1NC(=O)NC1CCOc2ccccc2C1 (stereo not shown) [Example 8, N-[2,6-bis(1-methylethyl)phenyl]-N'-(2,3,4,5-tetrahydrobenzoxepin-4-yl)urea] |
| 0.027 µM | CC(C)c1cccc(C(C)C)c1NC(=O)NCC1c2ccccc2-c2ccccc21 [Example 1, N-[2,6-bis(1-methylethyl)phenyl]-N'-(9H-fluoren-9-ylmethyl)urea] |
| 0.041 µM | CC(C)c1cccc(C(C)C)c1NC(=O)NC1CCc2ccccc2C1 (stereo not shown) [Example 9, N-[2,6-bis(1-methylethyl)phenyl]-N'-(1,2,3,4-tetrahydro-2-naphthalenyl)urea] |
